In experiment [1] the test system is GILZ. Put plainly: GILZ mRNA expression in CD11c+ MoDC (quantitative real-time PCR). To be noted: relative to untreated MoDC cultured alone; 24 hr (FIG. 13B); dex 100 nM; PUVA 100 ng/mL, 1 J/cm^2. Format: cell-based, human. The procedure:
Monocytes were cultured at a density of 5×10^6 cells/mL in 6- and 12-well polystyrene tissue culture plates at 37° C. and 5% CO2 in RPMI-1640 (Gibco) supplemented with heat-inactivated 15% AB serum (Gemini) and 1% penicillin/streptomycin (now referred to as complete media). 800 IU/mL recombinant human GM-CSF (R&D Systems) and 1000 IU/mL recombinant human IL-4 (R&D Systems) were added to cultures for 36 hr to induce monocyte to DC differentiation as described.
Non-adherent cells (purity: 66.0±4.5% CD3^+) removed during plastic adherence will now be generally referred to as lymphocytes. Lymphocytes were treated with 8-MOP (100 ng/mL) and UVA (1 J/cm^2), washed with PBS, and co-cultured in complete media at 37° C. and 5% CO2 with either PUVA-treated or untreated-MoDC in a ratio of 5 or 10 lymphocytes to 1 MoDC. […] 24 hr after LPS stimulation, cells were harvested for RNA isolation and immunophenotyping, and supernatants were collected for cytokine quantification.
RNA was isolated from CD11c^+ MoDC using QIAShredder columns (QIAGEN) and the RNeasy Mini Kit (QIAGEN) with on-column Dnase I treatment (QIAGEN). RNA yield and purity were assessed using a NanoDrop ND-1000 spectrophotometer. cDNA was obtained using the High Capacity cDNA Reverse Transcription Kit (Applied Biosystems) in a 96-well thermocycler (MJ Research PTC-200). […]

Experiment [2] has as its system MoDC. Put plainly: Cytokine quantification in MoDC supernatants after LPS stimulation (magnetic bead multiplex). Format: cell-based, human. To be noted: after LPS; untreated MoDC 6.7. The procedure: Lymphocytes were treated with 8-MOP (100 ng/mL) and UVA (1 J/cm^2), washed with PBS, and co-cultured in complete media at 37° C. and 5% CO2 with either PUVA-treated or untreated-MoDC in a ratio of 5 or 10 lymphocytes to 1 MoDC. MoDC treated for 24 hr with 100 nM dexamethasone (Sigma) served as the positive control group. After 24 hr, cells were harvested and MoDC were re-purified. […] CD11c^+ MoDC were re-plated at 0.5-1.0×10^6 cells/mL in complete media and stimulated with 100 ng/mL LPS (Sigma). 24 hr after LPS stimulation, cells were harvested for RNA isolation and immunophenotyping, and supernatants were collected for cytokine quantification.
(§1) Culture supernatants were analyzed in a multiplex format utilizing magnetic beads to IL-6, IL-8, IL-10, IL-12p70, IFN-γ, TNF-α, RANTES, MCP-1, and MIP-1β (BioRad Laboratories). For siRNA experiments, supernatants were analyzed with enzyme-linked immunosorbent assay (ELISA) kits for IL-10 (R&D Systems) and IL-12p70 (Enzo Life Science). All samples and standards were run in duplicate and analyzed using the LUMINEX 200 (LUMINEX), or the BioTek EL800 (BioTek).

For experiment [3], the system named is MoDC. Put plainly: IL-10 and IL-12p70 ELISA in siRNA experiments. Format: cell-based, human. To be noted: siRNA experiment, not transfected. The procedure: Silencer select pre-designed and validated GILZ siRNA (Invitrogen), with off-target prediction algorithms, was used to knockdown GILZ expression. Mo-DC were transfected using Lipofectamine RNAiMAX Reagent (Invitrogen). RNAi duplex and lipofectamine reagent were incubated together for 20 min, then added to MoDC cultures and incubated for 2 hr at 37° C. and 5% CO2. Transfected MoDC were treated in an identical fashion as described for the MoDC/lymphocyte co-cultures. MoDC were also transfected with scramble siRNA.
as §1
In general terms: ELISA stands for enzyme-linked immunosorbent assay.

For experiment [4], the system named is platelets. The experiment in a line: Platelet adhesion to protein-coated Vena8 channels under flow. Format: cell-based, human. To be noted: for Platelet adhesion to fibrinogen-coated plates after pre-incubation of platelets with peptide / Platelet adhesion to fibronectin-coated plates after pre-incubation of platelets with peptide: PRP pre-incubated with 2 mM peptide 20 min. The procedure:
Platelet adhesion experiments were performed using the Vena8 flow chamber described above. Fibrinogen and fibronectin (Sigma) were dissolved in PBS to a final concentration of 200 mcg/ml. Channels of the Vena8 chips were incubated at room temperature in a humidified chamber for 2 hours with the protein solution, autologous plasma, or PBS alone. The channels were washed with 5× the volume RPMI. Platelet-rich-plasma was then perfused through the protein-coated channel at the indicated shear-stress, held constant. For each channel, still images were acquired exactly 90 seconds into the experiment at 4 pre-defined low power fields located along the flow path (fields were centered at 2500, 7500, 12500, and 17500 microns from the start point of infusion).
Some experiments involved pre-treating platelet-rich-plasma with protein fragments prior to infusion through the channels. Small RGD peptides, containing the amino-acid sequence Arg-Gly-Asp-Ser; DRG peptides, contain the amino-acid sequence Ser-Asp-Gly-Arg; or fragment 400-411 of fibrinogen, containing the amino-acid sequence His-His-Leu-Gly-Gly-Ala-Lys-Gln-Ala-Gly-Asp-Val, were incubated at a concentration of 2 mM with PRP for 20 minutes at room temperature. The PRP was then perfused through the channels as previously described.

The test system of experiment [5] is monocyte-platelet interactions. The experiment in a line: Monocyte-platelet interactions on platelet-coated plates under flow (receptor-ligand studies). Format: cell-based, human. The procedure:
Platelet-coated Vena8 channels were pre-treated with either 40 μg/ml anti-P-selectin (R&D Systems) or 40 μg/ml of an isotype control for 30 minutes at room temperature, then washed with 5× the volume RPMI. Mononuclear cell suspensions were pre-treated with either RGD or DGR peptides at a concentration of 2.5 mM. Video samples lasting 400 frames (26.3 seconds) were recorded 60 seconds after commencement of flow using a lower power field of view spanning 400 microns and centered at 7500 microns from the flow start point.
The monocyte-platelet interactions observed on video were divided into two categories: (1) short-acting, arbitrarily defined as contact occurring for less than 3 seconds (46 frames), and (2) long-acting, defined as contact longer than 3 seconds, including stable binding. Since it had been previously determined that the platelets in the ECP system were in an activated state, and that activated platelets express an array of proteins including P-selectin and RGD containing proteins (e.g. fibronectin, fibrinogen, and vitronectin), it was sought to determine the involvement, if any, of these proteins in either short or long-duration interactions. Plates were pre-coated with platelets, and four conditions tested: (1) platelets pre-treated with an irrelevant isotype control, and monocytes untreated (P+RGD+); (2) platelets pre-treated with an irrelevant isotype control, and monocytes pre-incubated with RGD peptides (P+RGD−); (3) platelets pre-treated with anti-P-selectin, and monocytes untreated (P−RGD+); (4) platelets pre-treated with anti-P-selectin, and monocytes pre-treated with RGD peptides (P−RGD−). It was assumed that pre-treating monocytes with RGD peptides should result in a decreased in the number of free RGD-recognizing receptors available to interact with RGD-containing proteins expressed by the platelets. […] As shown by FIG. 6, both short-acting and long-acting interactions were maximal when neither RGD nor P-selectin were blocked (P+RGD+); the level of interaction in all other conditions was expressed as a percentage of this maximum. […]

In experiment [6] the target is β1 integrin (CD29), active (open) conformation, on monocytes (human) (UniProt P05556). Put plainly: flow cytometry of monocytes immediately after flow over platelet-coated plates, high number of platelet interactions. (In general: A flow cytometer gives signals particle by particle.)
β1 integrin (CD29), active (open) conformation, on monocytes (human), sequence (P05556 21-798): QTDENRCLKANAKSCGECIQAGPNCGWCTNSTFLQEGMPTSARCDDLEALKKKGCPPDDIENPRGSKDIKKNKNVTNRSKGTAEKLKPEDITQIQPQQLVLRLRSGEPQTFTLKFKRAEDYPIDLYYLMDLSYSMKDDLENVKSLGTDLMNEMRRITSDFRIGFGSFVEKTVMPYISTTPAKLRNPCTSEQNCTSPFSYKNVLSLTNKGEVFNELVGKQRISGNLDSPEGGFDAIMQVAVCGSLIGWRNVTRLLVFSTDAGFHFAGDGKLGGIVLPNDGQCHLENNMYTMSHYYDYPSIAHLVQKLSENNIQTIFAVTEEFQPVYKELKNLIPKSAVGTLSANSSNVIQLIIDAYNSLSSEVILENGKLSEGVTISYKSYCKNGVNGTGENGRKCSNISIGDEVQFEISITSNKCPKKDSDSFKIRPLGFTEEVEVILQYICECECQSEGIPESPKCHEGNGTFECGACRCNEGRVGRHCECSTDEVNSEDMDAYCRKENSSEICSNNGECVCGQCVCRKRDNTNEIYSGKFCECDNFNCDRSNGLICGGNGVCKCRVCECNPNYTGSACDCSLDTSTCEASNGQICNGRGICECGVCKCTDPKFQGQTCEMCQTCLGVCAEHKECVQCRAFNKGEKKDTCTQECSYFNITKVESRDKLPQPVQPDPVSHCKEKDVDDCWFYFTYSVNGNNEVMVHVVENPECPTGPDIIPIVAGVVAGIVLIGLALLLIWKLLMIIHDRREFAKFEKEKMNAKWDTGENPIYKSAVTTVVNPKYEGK
The target is the same in experiment [7]. The experiment in a line: flow cytometry of monocytes before passage through the plates.
The target is the same in experiment [8]. The experiment in a line: flow cytometry of monocytes immediately after flow over platelet-coated plates, low number of platelet interactions.
For experiment [9], the target named is RGD-recognizing receptors (on monocytes). Put plainly: cell-based or functional assay.
[10] abbreviates: 0.5 dyne/cm2, relative to P+RGD+ maximum.

The results in this text go back to patent US20160298082A1, “METHOD FOR OBTAINING IMMUNO-STIMULATORY DENDRITIC CELLS” (TRANSIMMUNE AG, priority 2013, published 2016).

Entries after “also recorded” stand apart in the source; their conditions may differ. No end group written: not given here.

In the case of `C[C@@H]1C[C@H]2[C@@H]3CCC4=CC(=O)C=C[C@]4(C)[C@@]3(F)[C@@H](O)C[C@]2(C)[C@@]1(O)C(=O)CO` [dexamethasone], the “GILZ up-regulation, MoDC cultured alone” value in [1] was determined as 4.29 fold. In addition, the “Ratio of IL-10 to IL-12p70, MoDC cultured alone” value in experiment [2] turned out to be 67.7. For the same molecule, in [3], the “IL-10 to IL-12p70 ratio, non-transfected MoDC cultured alone” value came out at 15.3.

Consider “Arg-Gly-Asp-Ser (RGDS; printed: Arg-Gly-Asp-Ser) [RGD peptides, small RGD peptides]”, for which, in [4], the “Platelet adhesion to fibrinogen-coated plates after pre-incubation of platelets with peptide” value was “not significantly altered” and the “Platelet adhesion to fibronectin-coated plates after pre-incubation of platelets with peptide” value is “decreased adhesion significantly”. In [5] (setting [10]), the “Long-duration (>3 s) monocyte-platelet interactions” value was “significant decrease” and the “Short-duration (<3 s) monocyte-platelet interactions” value was “did not significantly alter; also recorded: no change”. Moreover, the “Decrease of long-duration monocyte-platelet interactions” value in experiment [5] (monocytes pre-incubated with RGD peptides 2.5 mM (P+RGD−)) is given as 44%.

On to “HHLGGAKQAGDV [gamma fragments, gamma component of fibrinogen, amino acids 400-411]”, for which the “Platelet adhesion to fibrinogen-coated plates after pre-incubation of platelets with peptide” value in experiment [4] was “decreased”; in [4] (listed as peptide fragments corresponding to amino acids 400-411 of fibrinogen) it was “significantly decreased”. For the same molecule, in [4], the “Platelet adhesion to fibronectin-coated plates after pre-incubation of platelets with peptide” value is on record as “had no effect”.

In the case of “anti-CD29 HUTS-21 (BD Biosciences) (antibody)”, the percent of monocytes that bound the antibody (β1 in the active form) in experiment [6] was found to be 71%; in [8], 9%. This molecule also yielded a percent of monocytes that bound the antibody (baseline integrin activation) in experiment [7] of less than 10%.

As for fibrinogen, in [4] (coating 200 mcg/ml, wall shear stress 0.2 to 6.0 dyne/cm^2), the “Platelet adhesion to plates coated with the protein” value was “highest concentrations of platelets adhered”.

Regarding RGDS [RGD peptides, containing the amino-acid sequence Arg-Gly-Asp-Ser], in experiment [9], the long-duration monocyte-platelet interactions under flow (video microscopy) worked out at 44%.
